Earlier results, collected in patent US20220259114A1, “Microbe-Based Compositions for Restoring Soil Health and Controlling Pests” (Locus Agriculture IP Company, LLC, priority 2019, published 2022).
*1 amine or outer side, *2 acyl side, *3 side chain or, on linkers, in order; H or OH if unused. Where a SMILES comes first, the peptide text is derived from it. Bridges are numbered along the chain shown (N, C = ends). [ ]: non-standard residue; d: D form. X1 = CC(C)CCCCCCCCC[C@H](CC(=O)[*:1])O[*:2]

Tests used:
[1] = stated 'in one embodiment'; species and route not given
[2] = test system: plant pathogens including bacteria, fungi, viruses and nematodes; conditions: in most cases does not exceed
[3] = reduced from 72 mN/m; concentration as low as 0.005%

Row | Compound | toxic dose [1] | effective SLP concentration for biopesticide activity, in most cases [2] [mg/L] | surface tension of water after reduction [3] [mN/m]
1 | sophorolipid [SLP] | > 375 mg/kg of body weight | ≤ 3 | –
2 | CC(C)CCCCCCCCC[C@@H]1CC(=O)N[C@@H](CCC(=O)O)C(=O)N[C@@H](CC(C)C)C(=O)N[C@H](CC(C)C)C(=O)N[C@@H](C(C)C)C(=O)N[C@@H](CC(=O)O)C(=O)N[C@H](CC(C)C)C(=O)N[C@@H](CC(C)C)C(=O)O1 [Surfactin, surfactin] (EL[dL]VD[dL]L; linker N-C via X1) | – | – | 27
